Measurements reported in patent publication US20020068360A1, “Cyclohexanediol cryoprotectant compounds” (priority 2000, published 2002).

Tested on: AV5 cells
Assay: Cell viability (Alamar Blue) of AV5 cells after cryopreservation and warming
Format: cell-based, porcine
Conditions: 0 to 1 M CHD added to 1 M DMSO or to DMSO/formamide/propanediol (final 1 M), normalized to conventional cryoprotectant alone, FIGS. 2 and 3
Method: A primary cell strain called AV5 was used for these experiments. AV5 cells are derived from porcine heart valve leaflets. Hearts were obtained from pigs and the heart valve leaflets were then removed and washed several times with sterile phosphate-buffered saline (PBS). Small pieces (˜1 mm^2) were cut and placed into a 24-well microtiter plate coated with 0.2% gelatin. Dulbecco's Modified Eagle's Medium (DMEM) with 10% fetal calf serum (FCS) was added to just cover the bottom of the well and the plate was left at 37° C. with 5% CO2 in air until visible outgrowth occurred. […]
Cell viability was then determined using the non-invasive metabolic indicator Alamar Blue (Trek Diagnostics). […] Fluorescence from Alamar Blue was read in a fluorescent microplate reader (Fmax fluorescent microplate reader by […]) using an excitation wavelength of 544 nm and an emission wavelength of 590 nm.
The first set of experiments involved using two CPA compositions, either 1 M dimethyl sulfoxide (DMSO) (left bar of graph at each concentration of 1,3CHD in FIG. 2 and 1,4CHD in FIG. 3) or a combination of DMSO, formamide and propanediol at a final concentration of 1 M (right bar of graph at each concentration of 1,3CHD in FIG. 2 and 1,4CHD in FIG. 3). […] Cell viability was assessed using the assay described above. […]

Row | Compound | relative cell viability after freezing
1 | OC1CCCC(O)C1 (centres unmarked) [1,3CHD, 1,3-cyclohexanediol] | significantly increased
2 | OC1CCC(O)CC1 (centres unmarked) [1,4CHD, 1,4-cyclohexanediol] | significantly increased
